We go through eleven compounds from PubChem BioAssay (NCI).

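Briefly, cells in 96-well plates were exposed to five compound concentrations for 48 h, and endpoints were estimated by linear interpolation. GI50 is the concentration that inhibits growth by half. At the TGI there is no net growth.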

Test systems include SN12C renal; HT29 colon; SK-MEL-28 melanoma; HCT-15 colon; LOX IMVI melanoma; SK-MEL-5 melanoma; TK-10 renal; HL-60(TB) leukemia.
Holding throughout (assay): NCI tumour cell line growth inhibition, 48 h

On to `C=C1C(=O)O[C@H]2[C@H]1CC/C(COC(=O)CSCSCC(=O)OC/C1=C/CC[C@@]3(C)O[C@H]3[C@H]3OC(=O)C(=C)[C@@H]3CC1)=C\CC[C@@]1(C)O[C@@H]21`, for which the GI50 with SN12C renal was 1.65 µM; in the assay with HT29 colon, 1.37 µM; in the assay with SK-MEL-28 melanoma, 1.63 µM; in the assay on HCT-15 colon, 1.33 µM; in the assay on LOX IMVI melanoma, 1.3 µM; with SK-MEL-5 melanoma it was 1.95 µM. The GI50 with TK-10 renal was 1.92 µM. In addition, the TGI in the assay on SN12C renal is 3.85 µM; with HT29 colon it was 2.82 µM; in the assay on SK-MEL-28 melanoma it was 3.19 µM; in the assay on HCT-15 colon, 2.83 µM; in the assay with LOX IMVI melanoma, 2.65 µM; in the assay with SK-MEL-5 melanoma it was 4.33 µM. In addition, the TGI with TK-10 renal worked out at 3.67 µM.
Regarding `N#Cc1ccc(OCc2nc(N)nc(N)c2-c2ccc(Cl)c(Cl)c2)cc1`, the GI50 in the assay on SN12C renal is 2.79 µM; with HT29 colon, 0.592 µM; with SK-MEL-28 melanoma, 4.39 µM; with HCT-15 colon, 0.525 µM; in the assay on LOX IMVI melanoma, 0.424 µM; in the assay with HL-60(TB) leukemia, 0.554 µM. For the same compound, in the assay with SK-MEL-5 melanoma, the GI50 was 0.724 µM. Moreover, the TGI is more than 100 µM with SN12C renal; more than 100 µM with HT29 colon; 40.2 µM in the assay on SK-MEL-28 melanoma; more than 100 µM in the assay on HCT-15 colon; more than 100 µM in the assay on LOX IMVI melanoma; 24.4 µM in the assay on HL-60(TB) leukemia. This compound showed a TGI with SK-MEL-5 melanoma of 13.2 µM.
In the case of `OC(Cc1ccncc1)C(Cl)(Cl)Cl` (stereo unspecified), the GI50 in the assay with SN12C renal was more than 100 µM; with HT29 colon, more than 100 µM; in the assay with SK-MEL-28 melanoma, more than 100 µM; in the assay with HCT-15 colon, more than 100 µM; in the assay on LOX IMVI melanoma, more than 100 µM; with HL-60(TB) leukemia, 0.152 µM. Besides, the GI50 with TK-10 renal was more than 100 µM. Besides, the TGI with SN12C renal was more than 100 µM; in the assay on HT29 colon, more than 100 µM; in the assay on SK-MEL-28 melanoma, more than 100 µM; with HCT-15 colon, more than 100 µM; with LOX IMVI melanoma it was more than 100 µM; with HL-60(TB) leukemia, 60.1 µM. In addition, in the assay with TK-10 renal, the TGI is more than 100 µM.
Regarding `O=C(c1ccccc1)c1ccccc1-c1ccccc1`, the GI50 is 8.46 µM in the assay on SN12C renal; 0.986 µM with HT29 colon; 7.52 µM in the assay on SK-MEL-28 melanoma; 2.74 µM with HCT-15 colon; 5.96 µM in the assay with LOX IMVI melanoma; 3.2 µM in the assay with SK-MEL-5 melanoma. In the assay with TK-10 renal, the GI50 is 6.28 µM. For the same compound, the TGI with SN12C renal was more than 100 µM; with HT29 colon, 14.3 µM; in the assay with SK-MEL-28 melanoma, more than 100 µM; in the assay with HCT-15 colon, more than 100 µM; in the assay on LOX IMVI melanoma, more than 100 µM; in the assay on SK-MEL-5 melanoma it was 12.5 µM. The compound further came in with a TGI in the assay on TK-10 renal of more than 100 µM.
Consider `CCOC(=O)c1c(C)nc2c(c1N)CC(=O)N2Cc1ccc(OC)cc1`, for which the GI50 with SN12C renal, in the assay with HT29 colon, in the assay with SK-MEL-28 melanoma, with LOX IMVI melanoma, in the assay with HL-60(TB) leukemia and in the assay with SK-MEL-5 melanoma was more than 100 µM each time. The GI50 in the assay with TK-10 renal was 5.12 µM. In addition, the TGI in the assay with SN12C renal, in the assay on HT29 colon, in the assay on SK-MEL-28 melanoma, in the assay on LOX IMVI melanoma, with HL-60(TB) leukemia and in the assay with SK-MEL-5 melanoma was more than 100 µM each time. Also, in the assay on TK-10 renal, the TGI is more than 100 µM.
Turning to `COC(=O)c1ccc(-c2nc3cc(Cl)c(Cl)cc3nc2C#N)cc1`, the GI50 in the assay with SN12C renal, in the assay on HT29 colon, in the assay with SK-MEL-28 melanoma, in the assay with HCT-15 colon, in the assay with LOX IMVI melanoma and in the assay with SK-MEL-5 melanoma was more than 100 µM each time. For the same compound, in the assay on TK-10 renal, the GI50 was more than 100 µM. The TGI in the assay on SN12C renal, in the assay with HT29 colon, with SK-MEL-28 melanoma, in the assay on HCT-15 colon, in the assay on LOX IMVI melanoma and in the assay with SK-MEL-5 melanoma was more than 100 µM in each case. This compound also returned a TGI in the assay on TK-10 renal of more than 100 µM.
Consider `COC12C=C/C(=C(/C(=O)OCc3cncnc3)C(=O)CCCCCCCCC3(OC)C=C/C(=C(/C(=O)OCc4cncnc4)C(=O)CCCCCCCC1)O3)O2`, for which the GI50 was 0.404 µM in the assay on SN12C renal; 0.21 µM in the assay on HT29 colon; 0.325 µM with SK-MEL-28 melanoma; 0.308 µM in the assay on HCT-15 colon; 0.155 µM in the assay with LOX IMVI melanoma; 0.387 µM in the assay on HL-60(TB) leukemia. In addition, the GI50 with TK-10 renal is 0.689 µM. Also, the TGI amounted to 1.98 µM in the assay with SN12C renal; 1.09 µM with HT29 colon; 1.65 µM in the assay on SK-MEL-28 melanoma; 1.34 µM with HCT-15 colon; 0.524 µM in the assay with LOX IMVI melanoma; 2.82 µM with HL-60(TB) leukemia. The TGI in the assay with TK-10 renal came out at 1.93 µM.
For `CCOC(=O)/C(C=Nc1ccc(-c2nc3ccccc3[nH]2)cc1)=C(/C)O`, the GI50 in the assay with SN12C renal is 14.5 µM; in the assay with HCT-15 colon, 10.1 µM; with LOX IMVI melanoma, 9.13 µM; in the assay with HL-60(TB) leukemia it was 18.5 µM; with SK-MEL-5 melanoma, 7.71 µM; in the assay with TK-10 renal, 25.4 µM. Further, the TGI in the assay on SN12C renal is more than 50 µM; in the assay on HCT-15 colon, 24.4 µM; in the assay on LOX IMVI melanoma it was 16.5 µM; in the assay with HL-60(TB) leukemia it was 44 µM; in the assay with SK-MEL-5 melanoma, 15.5 µM; in the assay with TK-10 renal, more than 50 µM.
For `Cc1c[n+](=O)c2ccccc2n1[O-]`, the TGI with SN12C renal, in the assay on HT29 colon, in the assay on SK-MEL-28 melanoma, in the assay with HCT-15 colon, in the assay with LOX IMVI melanoma and in the assay with SK-MEL-5 melanoma was more than 100 µM in each case. The same compound had a TGI in the assay on TK-10 renal of more than 100 µM.
With `Cc1cccc(/C=C/c2c(C(=O)/C=C/c3ccccc3)c(C)nc3ccccc23)c1`, the GI50 in the assay with SN12C renal is 1.68 µM; in the assay on HT29 colon, 2.12 µM; in the assay on SK-MEL-28 melanoma, 1.81 µM; in the assay on HCT-15 colon, 1.26 µM; in the assay on LOX IMVI melanoma it was 1.58 µM; in the assay on HL-60(TB) leukemia, 1.83 µM. Also, the GI50 in the assay with SK-MEL-5 melanoma is 1.64 µM. Also, the TGI with SN12C renal came out at 3.5 µM; in the assay with HT29 colon it was 16.9 µM; with SK-MEL-28 melanoma, 3.28 µM; with HCT-15 colon it was 3.57 µM; in the assay on LOX IMVI melanoma it was 2.93 µM; in the assay with HL-60(TB) leukemia, 4.34 µM. In the assay with SK-MEL-5 melanoma, this compound yielded a TGI of 2.99 µM.
With `NS(=O)(=O)c1ccc(-n2nc(-c3ccc(Cl)cc3)cc2-c2cc(O)ccc2O)cc1`, the GI50 is 8.11 µM in the assay on SN12C renal; 6.28 µM with HCT-15 colon; 10 µM in the assay on HL-60(TB) leukemia; 15.2 µM with SK-MEL-5 melanoma; 10.9 µM in the assay with TK-10 renal. The TGI was 20.6 µM with SN12C renal; 19.2 µM with HCT-15 colon; 69 µM in the assay on HL-60(TB) leukemia; 32.3 µM in the assay with SK-MEL-5 melanoma; 26.1 µM in the assay with TK-10 renal.
